Row | Structure (SMILES) | melting point
1 | Cl.N[C@@]1(C(=O)OCc2cc(Cl)ccc2Cl)CC[C@H]2[C@H](C(=O)O)[C@H]21 [Example 33, (1S,2S,5R,6S)-2-Amino-bicyclo[3.1.0]hexane-2,6-dicarboxylic acid 2-(2′,5′-dichloro)benzyl ester hydrochloride] | 173 to 175 °C
2 | Cc1ccc(C)c(COC(=O)[C@]2(N)CC[C@H]3[C@H](C(=O)O)[C@H]32)c1.Cl [Example 41, (1S,2S,5R,6S)-2-Amino-bicyclo[3.1.0]hexane-2,6-dicarboxylic acid 2-(2′,5′-dimethyl)benzyl ester hydrochloride] | 70 °C (dec.)
3 | Cl.N[C@@]1(C(=O)OCc2cc(F)cc(F)c2)CC[C@H]2[C@H](C(=O)O)[C@H]21 [Example 35, (1S,2S,5R,6S)-2-Amino-bicyclo[3.1.0]hexane-2,6-dicarboxylic acid 2-(31,5′-difluoro)benzyl ester hydrochloride] | 98 to 99 °C
4 | Cl.N[C@@]1(C(=O)OCc2ccc(Cl)cc2Cl)CC[C@H]2[C@H](C(=O)O)[C@H]21 [Example 29, (1S,2S,5R,6S)-2-Amino-bicyclo[3.1.0]hexane-2,6-dicarboxylic acid 2-(2′,4′-dichloro)benzyl ester hydrochloride] | 135 to 137 °C
5 | Cl.N[C@@]1(C(=O)OCc2ccccc2Br)CC[C@H]2[C@H](C(=O)O)[C@H]21 [Example 34, (1S,2S,5R,6S)-2-Amino-bicyclo[3.1.0]hexane-2,6-dicarboxylic acid 2-(2′-bromo)benzyl ester hydrochloride] | 190 to 191 °C
6 | N[C@@]1(C(=O)OCc2cccc(F)c2)CC[C@H]2[C@H](C(=O)O)[C@H]21 [Example 54, (1S, 2S, SR,6S)-2-Amino-bicyclo[3.1.0]hexane-2,6-dicarboxylic acid 2-(3′-fluoro)benzyl ester] | 225 °C (dec.)
7 | COc1ccccc1COC(=O)[C@]1(N)CC[C@H]2[C@H](C(=O)O)[C@H]21 [Example 48, (1S,2S, SR, 6S)-2-Amino-bicyclo[3.1.0]hexane-2,6-dicarboxylic acid 2-(2′-methoxy)benzyl ester] | 195 °C (dec.)
8 | Cl.N[C@@]1(C(=O)OCc2ccccc2F)CC[C@H]2[C@H](C(=O)O)[C@H]21 [Example 31, (1S,2S,5R,6S)-2-Amino-bicyclo[3.1.0]hexane-2,6-dicarboxylic acid 2-(2′-fluoro)benzyl ester hydrochloride] | > 220 °C (dec.)
9 | Cl.N[C@@]1(C(=O)OCc2ccccc2C(F)(F)F)CC[C@H]2[C@H](C(=O)O)[C@H]21 | > 175 °C (dec.)

— US20050009912A1, “Prodrugs of excitatory amino acids” (priority 2001, published 2005)
